{
  "source": "patent US8927599B2",
  "about": "“Use of statins as anticonvulsants, antiepileptics and neuroprotectors” (Neuron Biopharma, S.A., priority 2008, dated 2015)",
  "key": {"patient": {"test_system": "patient", "settings": "cited from earlier work"}, "[1]": {"test_system": "male mice of the FVB/N strain inoculated with kainate (KA)", "assay": "Kainate-induced convulsions and status epilepticus, lovastatin (Example 10)", "type": "in vivo", "settings": "KA 25 mg/kg i.p., 50 mg/kg i.p. at 24 and 0.5 h before KA", "method": "(§1) All the animals included during the experimental process were 12 week old male mice of the FVB/N strain [Taconic Farms, Inc. (www.taconic.com)]. The experiments were carried out strictly following the Guidance on the Operation of Animals (Scientific Procedures, Act. 1986). The animals had their respective quarantine period and were treated with maximum precaution to minimize possible contaminations during inoculations and handling.\nThe mice, distributed into different groups, were intraperitoneally inoculated with 25 mg/kg of KA dissolved in PBS, according to the following protocol: • five mice were pretreated, at 24 and 0.5 hours before the inoculation with KA, with PBS by means of intraperitoneal (i.p.) injection; and • five animals were pretreated, at 24 and 0.5 hours before the inoculation with KA, with lovastatin at a dose of 50 mg/kg by means of i.p. injection\nAfter the inoculation with KA, the animals were individually housed in cages to monitor them. The maximum epilepsy level of the animals was recorded every 10 minutes during the observation according to the Racine scale and for at least 120 minutes post-inoculation (m.p.i.). Comparative studies of the epilepsy levels between the treatment with PBS and with lovastatin (FIG. 12) were subsequently conducted. […]"}, "[2]": {"test_system": "male mice of the FVB/N strain inoculated with kainate (KA)", "assay": "Effect of the route of administration, kainate model (Example 3)", "type": "in vivo", "settings": "FIG. 5", "method": "As shown in Examples 1 and 2, simvastatin has antiepileptic properties and such properties depend on the dose at which said compound is administered. Due to these observations, the inventors decided to investigate if the antiepileptic effect of simvastatin would also be modulated by the route of administration. All the animals included during the experimental process were 16 week old male mice of the FVB/N strain. The experiments were carried out strictly following the Guidance on the Operation of Animals (Scientific Procedures, Act. 1986). The animals had their respective quarantine period and were treated with maximum precaution to minimize possible contaminations during inoculations and handling.\nThe animals, distributed into different groups, were intraperitoneally inoculated with 25 mg/kg of KA dissolved in PBS, according to the following protocol: • three animals were pretreated, at 24 and 0.5 hours before the inoculation with KA, with simvastatin at a dose of 50 mg/kg by means of direct oral administration; and • two animals were pretreated, at 24 and 0.5 hours before the inoculation with KA, with simvastatin at a dose of 50 mg/kg by means of i.p. injection\n(§2) After the inoculation with KA, the animals were individually housed in cages to monitor them. The maximum epilepsy level of the animals was recorded every 10 minutes during the observation according to the Racine scale and for at least 120 minutes post-inoculation (m.p.i.)."}, "[3]": {"test_system": "male mice of the FVB/N strain inoculated with kainate (KA)", "assay": "Kainate-induced convulsions, epilepsy level on the Racine scale and latency (Example 1)", "type": "in vivo", "settings": "for time of the onset of the first convulsion (latency): KA 30 mg/kg i.p., FIG. 1", "method": "as §1, with “16” for “12”\nThe animals, distributed into different groups, were intraperitoneally inoculated with 30 mg/kg of kainate (KA) dissolved in phosphate buffer saline (PBS), according to the following protocol: • seven animals were pretreated, at 24 and 0.5 hours before the inoculation with KA, with PBS by means of intraperitoneal (i.p.) injection; • six animals were pretreated, at 24 and 0.5 hours before the inoculation with KA, with simvastatin at a dose of 50 mg/kg by means of i.p. injection; and • four animals were pretreated, at 24 and 0.5 hours before the inoculation with KA, with DNQX (a specific inhibitor of KA receptors) at a dose of 30 mg/kg, by means of i.p. injection.\nas §2"}},
  "note": "Like-named read-outs stand apart in the source and are kept apart here.",
  "data": [
    {"compound": "CC(C)c1nc(N(C)S(C)(=O)=O)nc(-c2ccc(F)cc2)c1/C=C/[C@@H](O)C[C@@H](O)CC(=O)O", "note": "[rosuvastatin]", "values": [
      {"measurement": "adverse event after administration to a patient", "setting": "patient; Lorenzoni et al., Arq Neuropsiquiatr. 2007", "value": "severe rhabdomyolysis with convulsions and coma"}
    ]},
    {"compound": "CC[C@H](C)C(=O)O[C@H]1C[C@@H](C)C=C2C=C[C@H](C)[C@H](CC[C@@H]3C[C@@H](O)CC(=O)O3)[C@H]21", "note": "[lovastatin]", "values": [
      {"measurement": "entrance into status epilepticus", "setting": "[1]; PBS 3 of 5", "value": "0 of 5"},
      {"measurement": "epilepsy symptoms (Racine scale) at the end of the observation time", "setting": "[1]; PBS+KA about 3, p-value=0.00059, FIG. 12", "value": "completely reduced the epilepsy symptoms"}
    ]},
    {"compound": "CCC(C)(C)C(=O)O[C@H]1C[C@@H](C)C=C2C=C[C@H](C)[C@H](CC[C@@H]3C[C@@H](O)CC(=O)O3)[C@H]21", "note": "[simvastatin]", "values": [
      {"measurement": "epileptic level (Racine scale)", "setting": "[2]; 50 mg/kg direct oral administration, reached at 100 m.p.i. and maintained until 120 m.p.i., KA 25 mg/kg", "value": 2},
      {"measurement": "epileptic level (Racine scale)", "setting": "[2]; 50 mg/kg i.p., 70 m.p.i. of KA 25 mg/kg", "value": 2},
      {"measurement": "epileptic level (Racine scale)", "setting": "[2]; 50 mg/kg i.p., 120 m.p.i. of KA 25 mg/kg", "value": 1},
      {"measurement": "time of the onset of the first convulsion (latency)", "setting": "[3]; pretreated 50 mg/kg i.p. at 24 and 0.5 h before KA", "value": "50.0 ± 11.8", "unit": "min"},
      {"measurement": "mean epilepsy level (Racine scale)", "setting": "[3]; after 30 m.p.i. of KA 30 mg/kg, 50 mg/kg i.p. pretreatment, FIG. 2", "value": "≤ 4"}
    ]},
    {"compound": "CC(C)n1c(/C=C/C(O)CC(O)CC(=O)O)c(-c2ccc(F)cc2)c2ccccc21", "note": "(centres unmarked) [fluvastatin]", "values": [
      {"measurement": "adverse event after administration to a patient", "setting": "patient; patient with catastrophic antiphospholipid syndrome, Miesbach et al., J Neurol Sci. 2005", "value": "focal convulsions"}
    ]},
    {"compound": "O=[N+]([O-])c1cc2nc(O)c(O)nc2cc1[N+](=O)[O-]", "note": "[DNQX]", "values": [
      {"measurement": "time of the onset of the first convulsion (latency)", "setting": "[3]; pretreated 30 mg/kg i.p. at 24 and 0.5 h before KA", "value": "23.3 ± 7.6", "unit": "min"},
      {"measurement": "epilepsy level (Racine scale) versus PBS", "setting": "[3]; after 30 m.p.i. of KA 30 mg/kg, 30 mg/kg i.p. pretreatment, FIG. 3", "value": "prevents the increase of the epileptic levels"}
    ]}
  ]
}
